Measured values as given in US20250314668A1, “DNAZYMES FOR SENSING AND IMAGING TARGET MOLECULES” (BOARD OF REGENTS, THE UNIVERSITY OF TEXAS SYSTEM, priority 2024, published 2025).
Where two headings read alike, the source gives them in different places. d = 2'-deoxy (DNA); m = 2'-O-methyl

Columns and labels:
[1] = test system: cultured cell lines; assay: Iron redox changes in cultured cell lines with ferroptosis inducers and NCOA4 regulators; type: cell-based
[2] = test system: SH-SY5Y cells; assay: Fluorescence imaging of Cu^+ and Cu^2+ in live SH-SY5Y cells (PDTC, BCS, Aβ40); type: cell-based, human
[3] = Point mutation gel cleavage assay of Fe^3+ B12 DNAzyme and substrate (heat map); type: biochemical; details: 100 μM FeCl3, pH 5.5, overnight; for activity of mutated substrate strand normalized to original Fe^3+ B12 Substrate: original DNAzyme strand
Protocol: FIG. 5 depicts a heat map illustrating the impact of point mutations within the catalytic core of the Fe^3+ B12 DNAzyme, against the unaltered Fe^3+ B12 substrate strand for comparative analysis with 5 mM Bis Tris, 40 mM Sodium Acetate, 200 mM NaCl at pH 5.5 with 100 μM FeCl3. The reaction occurred overnight at room temperature and analyzed by polyacrylamide gel electrophoresis.
FIG. 6 depicts a heat map illustrating the impact of point mutations within the catalytic core of the Fe^3+ B12 Substrate strand, against the unaltered Fe^3+ B12 DNAzyme strand for comparative analysis with 5 mM Bis Tris, 40 mM Sodium Acetate, 200 mM NaCl at pH 5.5 with 100 μM FeCl3. The reaction occurred overnight at room temperature and analyzed by polyacrylamide gel electrophoresis.
Point mutations were intentionally introduced into the Fe^3+ B12 DNAzyme catalytic core, and subsequently assessed in comparison to the unaltered Fe^3+ B12 substrate strand under controlled reaction conditions. These conditions included a solution comprising 5 mM Bis Tris, 40 mM Sodium Acetate, 200 mM NaCl at pH 5.5, with concentrations of 250 nM for both the mutated B12 DNAzyme Strand and the FAM-labeled Original B12 Substrate Strand, along with 100 μM FeCl3. The reaction proceeded overnight at ambient temperature, followed by analysis via electrophoresis on a 15% denaturing gel.
Point mutations were intentionally introduced into the Fe^3+ B12 Substrate Strand's catalytic core, and subsequently assessed in comparison to the unaltered Fe^3+ B12 DNAzyme strand under controlled reaction conditions. These conditions included a solution comprising 5 mM Bis Tris, 40 mM Sodium Acetate, 200 mM NaCl at pH 5.5, with concentrations of 250 nM for both the Original B12 DNAzyme Strand and the FAM-labeled mutated B12 Substrate Strand, along with 100 μM FeCl3. The reaction proceeded overnight at ambient temperature, followed by analysis via electrophoresis on a 15% denaturing gel.

[4] = PAGE gel activity assays of Fe^2+ H5 DNAzyme (cleavage site, truncation, pH, mutation combinations, selectivity); type: biochemical; details: for cleavage by the original Fe^2+ H5 DNAzyme: presence of Fe^2+, anaerobic conditions; for relative activity of combined point mutations versus original: original FAM-labeled substrate, 100 μM FeCl2, 2 hours, room temperature
Description: RNA Cleavage Dependence of Fe^2+ H5 and Fe^3+ B12 DNAzymes: To investigate the Fe^2+ H5 and Fe^3+ B12 DNAzymes, various cleavage site modifications were incorporated into the substrate strands. The original Fe^2+ H5 DNAzyme was combined with Fe^2+ H5 substrate strands containing either a 2′-hydroxyl (2′OH), 2′-hydrogen (2′H), or 2′O-methyl (2′OMe) at the cleavage site. The original Fe^2+ H5 DNAzyme cleaves the Fe^2+ H5 substrate strand containing 2′OH at the cleavage site in the presence of Fe^2+ under anaerobic conditions. […] Similarly, the original Fe^3+ B12 DNAzyme was combined with Fe^3+ B12 substrate strands containing either 2′OH, 2′H, or 2′OMe at the cleavage site. The original Fe^3+ B12 DNAzyme cleaves the Fe^3+ B12 substrate strand containing 2′OH at the cleavage site in the presence of Fe^3+. […] These findings highlight the critical role of the 2′OH group at the cleavage site in enabling DNAzyme activity for both Fe^2+ H5 and Fe^3+ B12 systems, as substitutions with 2′H or 2′OMe impede cleavage.
Truncations of Fe^2+ H5 and Fe^3+ B12 DNAzymes' Binding Arms: To further investigate the Fe^2+ H5 and Fe^3+ B12 DNAzymes, the DNAzymes were truncated at the 5′ and 3′ ends and tested using the FAM-labeled original substrate strand through activity assays assessed by PAGE gel. The activity of the Fe^2+ H5 DNAzyme with the original substrate strand remains relatively unchanged when 1 or 2 nucleotides are truncated from either the 3′ or 5′ end. […] The activity of the Fe^3+ B12 DNAzyme with the original substrate strand is maintained when 1 or 2 nucleotides are truncated from the […]. A notable reduction in relative intensity occurs when 3, 4, or 5 nucleotides are truncated from the 5′ end. Additionally, truncation of 1, 2, or 3 nucleotides from the 3′ end also results in a decrease in relative intensity.
pH Dependency of Fe^2+ H5 and Fe^3+ B12 DNAzymes: To further investigate the impact of reaction conditions on catalytic activity, the study evaluated the influence of pH system. For the Fe^2+ H5 DNAzyme, the study assessed cleavage efficiency across a pH range of 6.0 to 7.5 in MOPS, MES, Bis-Tris, or Tris under anaerobic conditions with 100 μM FeCl2.
Combination of Fe^2+ H5 DNAzyme strand Improvements: Given the enhanced activity observed with several point mutations in the Fe^2+ H5 DNAzyme strand, the study investigated whether combinations of these point mutations would further improve the DNAzyme's activity. The study designed 41 combinations of the 6-point mutations located at positions 39 (A39T and A39G), 40 (A40C), 51 (G51C), 52 (C52G), and 54 (T54C), along with the original Fe^2+ H5. Each sequence was tested with the original FAM-labeled Fe^2+ substrate strand in the presence of 100 μM FeCl2 for 2 hours at room temperature. […] Certain combinations of mutations enhance activity, while others diminish it, indicating interactions that are not merely additive. The specific positions of the mutations play a critical role in determining the overall activity, with some combinations inducing beneficial conformational changes and others disrupting key structural elements. These findings highlight the importance of understanding the contextual interplay of mutations for optimizing DNAzyme performance. The identified combinations that increase activity offer valuable insights for the future engineering of more efficient DNAzyme variants.
Combining Enhanced Fe^2+ H5 and Fe^3+ B12 DNAzymes Single Point Mutations: To assess the potential additive effects of combining enhanced Fe^2+ H5 DNAzyme strands with substrate strands, the study evaluated the relative intensities of point mutations within these strands. Reactions were conducted in a buffer solution containing 25 mM Bis-Tris, 200 mM NaCl at pH 6.5, with 250 nM each of the mutated H5 DNAzyme strand and the FAM-labeled mutated H5 substrate strand, and 100 μM FeCl2. […]

[5] = test system: HepG2 or Hela cells; assay: Simultaneous imaging of labile Fe^2+ and Fe^3+ in living cells treated with Tf or DFO; type: cell-based; details: treated cells
Protocol: For delivery of DNAzyme sensors using PEI (66, 67), the corresponding Fe(II)-H5-ErS, Fe(II)-H5-iErS, Fe(III)-B12-ErS, and Fe(III)-B12-iErS (final concentration of 10 μM) were mixed in the Fe^2+ buffer and Fe^3+ buffer separately. The mixtures were annealed at 95° C. for 5 min and stored at room temperature to allow full hybridization. PEI (25 kDa) was dissolved in water at 1 mg/ml. […] The normal cell medium was replaced with iron-deficient medium before the PEI-ErS or PEI-iErS was added to the cells grown in the plates.
After incubating HepG2 cells with PEI-ErS or PEI-iErS complex for 4 hours, cells were washed with phosphate-buffered saline (PBS) twice to remove excess amounts of complexes in medium. Then, the cells were stained by Hoechst 33258 for 15 min. Images were obtained using a Zeiss LSM 880 confocal microscope at 63× oil objective lens with numerical aperture 1.40 and immersion medium Immersol 518 F (Zeiss) at the UIUC IGB Core Facilities. Florescence emission of Hoechst 33258 was measured over 450 to 500 nm with excitation at 401 nm. Fe(II)-H5 was excited by 488 nm and measured over 500 to 550 nm, and Fe(III)-B12 was excited at 633 nm and measured over 640 to 700 nm. A laser power of 67% and pinhole size of 1 […] (AU) were used for the cellular images. Acquired images were analyzed by ImageJ using JACoP (88, 89). No background subtraction, Z-stacks, Gaussian blur filter, or change thresholds were performed for visualizing the figures. For cell fluorescence quantification, the study quantified the average fluorescence signals intensity in five cells (for TurboFect transfected cells) or five LysoTracker-labeled regions in different cells (for PEI transfected cells), per picture and three pictures per group with Image J (88), for the statistical comparison between groups.
Simultaneous imaging of labile Fe^2+ and Fe^3+ in living cells: HepG2 or Hela cells were cultured in glass-bottom dishes until about 70% confluence. The cells were pretreated with iron-deficient MEM containing either 100 μM DFO, 100 μM ferric ammonium citrate, […] holo-Tf, or 50 μM Tf for 4 hours, and then, the medium was replaced with an iron-deficient MEM containing PEI-ErS or PEI-iErS complexes or Opti-MEM containing 1 μl of TurboFect transfection reagent as described above for 4 hours. Before imaging, the cells were stained by LysoTracker Red and Hoechst 33258 for 15 min. After washing with PBS, the cells were incubated in iron-deficient MEM or regular DMEM, respectively, during the imaging.
Data processing and statistical analysis: To have a direct comparison of the iron amount between groups, the background signals were normalized by subtracting the fluorescence signals in iErS groups from the ErS groups (F-F0). No Z-stacks or change thresholds were used for statistical analysis. Graphs were plotted with GraphPad (GraphPad Software Inc.) or Origin (OriginLabs Corporation) and correspond to a single experiment. Bars represent means±SEM. Two-tailed distribution and two-sample equal variance t test were used for analyzing significance. Dixon's Q tests were performed to identify and exclude outliners. *P<0.05, **P<0.01, and ***P <0.001. […] The presented data described the quantification from single representative replicates from those biological replicates.

Molecule: [Cl-].[Cl-].[Co+2] [CoCl2]
- Fe^3+/Fe^2+ ratio (Fe redox) with elevation of NCOA4 [1]: increase

Molecule: Cc1cc(-c2ccc(S(=O)(=O)O)cc2)c2ccc3c(-c4ccc(S(=O)(=O)O)cc4)cc(C)nc3c2n1 [BCS, bathocuproine disulphonate]
- fluorescence intensity of copper DNAzyme ([2]; 150 μM or 200 μM BCS overnight): significant decrease

Molecule: COC(=O)CNC(=O)C(=O)OC [DMOG]
- Fe^3+/Fe^2+ ratio (Fe redox) with elevation of NCOA4 ([1]; cells incubated with NCOA4 stimulator): increase

Molecule: Fe^3+ B12 DNAzyme C20T (GCGGCATGCGCGTTTGCGGTACCTAAACGCTCCTAATAGAG; DNA, backbone not given here)
- activity of mutated DNAzyme strand normalized to original Fe^3+ B12 DNAzyme ([3]; FAM-labeled original substrate): heightened activity

Molecule: Fe^2+ H5 Original Substrate (2′H) (CGGACCCGTATCAATCTCACGTATAGGATATCCA; DNA, backbone not given here)
- cleavage by the original Fe^2+ H5 DNAzyme [4]: does not cleave

Molecule: Fe^3+ B12 Substrate A14G (CTCTATTAGGGAGGCTCGCATGCCGC; listed as DNA, chemistry not fully specified)
- activity of mutated substrate strand normalized to original Fe^3+ B12 Substrate [3]: heightened activity

Molecule: Amyloid-β (1-40) peptide [Aβ40]
- fluorescence signals of intracellular Cu^+ and Cu^2+ DNAzyme ([2]; pretreated 24 h with monomers, oligomers and fibrils): enhanced

Molecule: Fe^2+ H5 Original Substrate (2′OMe) (CGGACCCGTATCAATCTCACGTATAGGATATCCA; sugars from the 5' end d24 m1 d9, backbone not given here)
- cleavage by the original Fe^2+ H5 DNAzyme [4]: does not cleave

Molecule: CC(=O)N(O)CCCCCNC(=O)CCC(=O)N(O)CCCCCNC(=O)CCC(=O)N(O)CCCCCN [DFO, deferoxamine, reference compound]
- decrease of the Fe^3+/Fe^2+ ratio [5]: 2.4 fold

Molecule: Fe^3+ B12 Substrate C15A (CTCTATTAGGGAGAATCGCATGCCGC; listed as DNA, chemistry not fully specified)
- activity of mutated substrate strand normalized to original Fe^3+ B12 Substrate [3]: heightened activity

Molecule: S=C(S)N1CCCC1 [PDTC, pyrrolidine dithiocarba-mate]
- fluorescence signal of both Cu^+ and Cu^2+ sensor ([2]; 50 PM PDTC): significant increase
- fluorescence signal of both Cu^+ and Cu^2+ sensor ([2]; addition of PDTC with Cu^2+, dose-dependent manner): increased

Molecule: Aβ40 oligomers: oligomeric aggregation state of Aβ40
- fluorescence intensity of Cu^+ and Cu^2+ DNAzyme ([2]; 10 μM, 24 h): significantly increased

B1: Fe^2+ H5 DNAzyme Combo 31 (nucleic acid)
chain: TGGATATCTCCTAGCCAGACTGTTATGTGTGATACGGCGCACTTCGTGATCGCTCTACGGGTCCG
modifications: DNA, backbone not given here
- relative activity of combined point mutations versus original [4]: decreased the relative activity

B2: Fe^2+ H5 DNAzyme Combo 41 (nucleic acid)
chain: TGGATATCTCCTAGCCAGACTGTTATGTGTGATACGGCGCACTTCGTGATCGCCCTACGGGTCCG
modifications: DNA, backbone not given here
- relative activity of combined point mutations versus original [4]: increased the relative activity

B3: Fe^2+ H5 DNAzyme Combo 30 (nucleic acid)
chain: TGGATATCTCCTAGCCAGACTGTTATGTGTGATACGGCGCACTTCGTGATGCCCCTACGGGTCCG
modifications: DNA, backbone not given here
- relative activity of combined point mutations versus original [4]: increased the relative activity

B4: Fe^2+ H5 DNAzyme Combo 29 (nucleic acid)
chain: TGGATATCTCCTAGCCAGACTGTTATGTGTGATACGGCGAACTTCGTGATCGCTCTACGGGTCCG
modifications: DNA, backbone not given here
- relative activity of combined point mutations versus original [4]: increased the relative activity
